According to ChEMBL document CHEMBL4334526, “Synthesis of Peptoid-Based Class I-Selective Histone Deacetylase Inhibitors with Chemosensitizing Properties” (J Med Chem, 2019):
Active and inactive are the calls of the source. No cut-off for these calls is given here.

Columns and labels:
[1] = biological target: T1, Class 1 histone deacetylase (Homo sapiens, UniProt Q13547+O15379+Q92769+Q9BY41); assay: Inhibition of class 1 HDAC in human Cal27CisR cells assessed as potentiation of cisplatin-induced cytotoxicity by measuring combination index at […] in presence of 100 uM cisplatin by MTT assay based Chou-Talalay analysis; assay type: cell-based
[2] = biological target: T1, Class 1 histone deacetylase; assay: Inhibition of class 1 HDAC in human CAL27 cells assessed as potentiation of cisplatin-induced cytotoxicity by measuring combination index at […] in presence of 1 uM cisplatin by MTT assay based Chou-Talalay analysis; assay type: cell-based; details: CAL-27
[3] = biological target: T1, Class 1 histone deacetylase; assay: Inhibition of class 1 HDAC in human CAL27 cells assessed as potentiation of cisplatin-induced cytotoxicity by measuring combination index at 1 uM in presence of 1 uM cisplatin by MTT assay based Chou-Talalay analysis; assay type: cell-based; details: CAL-27
[4] = biological target: T1, Class 1 histone deacetylase; assay: (§1) Inhibition of class 1 HDAC in human CAL27 cells assessed as potentiation of cisplatin-induced cytotoxicity by measuring combination index at 1 uM in presence of […] cisplatin by MTT assay based Chou-Talalay analysis; assay type: cell-based; details: CAL-27
[5] = biological target: T1, Class 1 histone deacetylase; assay: (§2) Inhibition of class 1 HDAC in human Cal27CisR cells assessed as potentiation of cisplatin-induced apoptosis assessed as increase in caspase-3/7 activation at 5 uM preincubated for 48 hrs followed by cisplatin addition and measured after 24 hrs in presence of pan caspase inhibitor QVD by CellEvent caspase 3/7 green detection reagent/Hoechst 33342 staining based imaging analysis; assay type: cell-based
[6] = biological target: T1, Class 1 histone deacetylase; assay: Inhibition of class 1 HDAC in human Cal27CisR cells assessed as potentiation of cisplatin-induced cytotoxicity by measuring combination index at 1 uM in presence of 32 uM cisplatin by MTT assay based Chou-Talalay analysis; assay type: cell-based
[7] = biological target: T1, Class 1 histone deacetylase; assay: Inhibition of class 1 HDAC in human Cal27CisR cells assessed as potentiation of cisplatin-induced cytotoxicity by measuring combination index at […] in presence of 32 uM cisplatin by MTT assay based Chou-Talalay analysis; assay type: cell-based
[8] = biological target: T1, Class 1 histone deacetylase; assay: Inhibition of class 1 HDAC in human Cal27CisR cells assessed as potentiation of cisplatin-induced cytotoxicity by measuring combination index at 1 uM in presence of […] cisplatin by MTT assay based Chou-Talalay analysis; assay type: cell-based
[9] = biological target: T1, Class 1 histone deacetylase; assay: as §1; assay type: cell-based; details: CAL-27; remark: listed apart in the source
[10] = biological target: T1, Class 1 histone deacetylase; assay: Inhibition of class 1 HDAC in human Cal27CisR cells assessed as potentiation of cisplatin-induced cytotoxicity by measuring combination index at 1 uM in presence of 1 uM cisplatin by MTT assay based Chou-Talalay analysis; assay type: cell-based
A2780 = assay: Cytotoxicity against human A2780 cells assessed as reduction in cell survival measured after 72 hrs by MTT assay; assay type: functional, cell-based; details: A2780, 72 h
[11] = biological target: T1, Class 1 histone deacetylase; assay: Inhibition of class 1 HDAC in human CAL27 cells assessed as potentiation of cisplatin-induced cytotoxicity by measuring combination index at […] in presence of […] cisplatin by MTT assay based Chou-Talalay analysis; assay type: cell-based; details: CAL-27
[12] = biological target: T1, Class 1 histone deacetylase; assay: Inhibition of class 1 HDAC in human CAL27 cells assessed as potentiation of cisplatin-induced cytotoxicity by measuring combination index at 1 uM in presence of 0.10 uM cisplatin by MTT assay based Chou-Talalay analysis; assay type: cell-based; details: CAL-27
[13] = biological target: T1, Class 1 histone deacetylase; assay: Inhibition of class 1 HDAC in human Cal27CisR cells assessed as potentiation of cisplatin-induced cytotoxicity by measuring combination index at 1 uM in presence of 100 uM cisplatin by MTT assay based Chou-Talalay analysis; assay type: cell-based
[14] = biological target: T1, Class 1 histone deacetylase; assay: Inhibition of class 1 HDAC in human Cal27CisR cells assessed as potentiation of cisplatin-induced cytotoxicity by measuring combination index at […] in presence of […] cisplatin by MTT assay based Chou-Talalay analysis; assay type: cell-based
[15] = biological target: Histone deacetylase 3/Nuclear receptor corepressor 2 (HDAC3/NCoR2) (Homo sapiens) (UniProt O15379+Q9Y618); assay: Inhibition of human recombinant full length C-terminal His-tagged HDAC3 (1 to 428 residues)/N-terminal GST-tagged NCOR2 (395 to 489 residues) expressed in baculovirus infected Sf9 insect cells at 10 uM using Boc-Lys(epsilon-acetyl)-AMC as substrate incubated for 90 mins by fluorescence assay relative to control
[16] = biological target: T1, Class 1 histone deacetylase; assay: Inhibition of class 1 HDAC in human CAL27 cells assessed as potentiation of cisplatin-induced cytotoxicity by measuring fold reduction in cisplatin IC50 at 5 uM preincubated for 48 hrs followed by cisplatin addition and measured after 72 hrs by MTT assay relative to cisplatin IC50; assay type: cell-based; details: CAL-27
[17] = biological target: T1, Class 1 histone deacetylase; assay: Inhibition of class 1 HDAC in human CAL27 cells assessed as potentiation of cisplatin-induced cytotoxicity by measuring combination index at […] in presence of 0.1 uM cisplatin by MTT assay based Chou-Talalay analysis; assay type: cell-based; details: CAL-27
[18] = biological target: T1, Class 1 histone deacetylase; assay: Inhibition of class 1 HDAC in human CAL27 cells assessed as potentiation of cisplatin-induced cytotoxicity by measuring combination index at […] in presence of 10 uM cisplatin by MTT assay based Chou-Talalay analysis; assay type: cell-based; details: CAL-27
[19] = biological target: T1, Class 1 histone deacetylase; details: CAL-27
Description: Inhibition of class 1 HDAC in human CAL27 cells assessed as potentiation of cisplatin-induced cytotoxicity by measuring combination index at 0.5 uM in presence of 0.1 uM cisplatin by MTT assay based Chou-Talalay analysis

[20] = biological target: T1, Class 1 histone deacetylase
[21] = biological target: T1, Class 1 histone deacetylase; remark: listed apart in the source
Description: Inhibition of class 1 HDAC in human Cal27CisR cells assessed as potentiation of cisplatin-induced cytotoxicity by measuring combination index at 0.5 uM in presence of 10 uM cisplatin by MTT assay based Chou-Talalay analysis

[22] = biological target: T1, Class 1 histone deacetylase; remark: listed apart in the source
Description: Inhibition of class 1 HDAC in human Cal27CisR cells assessed as potentiation of cisplatin-induced cytotoxicity by measuring combination index at 0.5 uM in presence of 1 uM cisplatin by MTT assay based Chou-Talalay analysis

[23] = biological target: T1, Class 1 histone deacetylase; remark: listed apart in the source
Description: Inhibition of class 1 HDAC in human Cal27CisR cells assessed as potentiation of cisplatin-induced cytotoxicity by measuring combination index at 0.5 uM in presence of 3.2 uM cisplatin by MTT assay based Chou-Talalay analysis

[24] = biological target: T1, Class 1 histone deacetylase; details: CAL-27; remark: listed apart in the source
Description: Inhibition of class 1 HDAC in human CAL27 cells assessed as potentiation of cisplatin-induced cytotoxicity by measuring combination index at 0.5 uM in presence of 3.2 uM cisplatin by MTT assay based Chou-Talalay analysis

[25] = biological target: T1, Class 1 histone deacetylase; details: CAL-27; remark: listed apart in the source
Description: Inhibition of class 1 HDAC in human CAL27 cells assessed as potentiation of cisplatin-induced cytotoxicity by measuring combination index at 0.5 uM in presence of 0.32 uM cisplatin by MTT assay based Chou-Talalay analysis

[26] = biological target: T1, Class 1 histone deacetylase; details: CAL-27; remark: listed apart in the source
Description: Inhibition of class 1 HDAC in human CAL27 cells assessed as potentiation of cisplatin-induced cytotoxicity by measuring combination index at 0.5 uM in presence of 10 uM cisplatin by MTT assay based Chou-Talalay analysis

[27] = biological target: Histone deacetylase 3/Nuclear receptor corepressor 2 (HDAC3/NCoR2) (Homo sapiens, UniProt O15379); assay: biochemical; assay type: cell-based, Sf9
Description: Inhibition of human recombinant full length C-terminal His-tagged HDAC3 (1 to 428 residues)/N-terminal GST-tagged NCOR2 (395 to 489 residues) expressed in baculovirus infected Sf9 insect cells using Boc-Lys(epsilon-acetyl)-AMC as substrate incubated for 90 mins by fluorescence assay

[28] = biological target: T1, Class 1 histone deacetylase; assay: Inhibition of class 1 HDAC in human CAL27 cells assessed as increase in histone H3 acetylation at […] measured after 24 hrs by immunoblot analysis; assay type: cell-based; details: CAL-27
[29] = Induction of apoptosis in human Cal27CisR cells assessed as caspase-3/7 activation at […] measured after 48 hrs by CellEvent caspase 3/7 green detection reagent/Hoechst 33342 staining based imaging analysis relative to control; assay type: functional
[30] = biological target: T1, Class 1 histone deacetylase; assay: as §2, with “5 uM” left out; assay type: cell-based

T1 sequence (O15379 whole entry, looked up): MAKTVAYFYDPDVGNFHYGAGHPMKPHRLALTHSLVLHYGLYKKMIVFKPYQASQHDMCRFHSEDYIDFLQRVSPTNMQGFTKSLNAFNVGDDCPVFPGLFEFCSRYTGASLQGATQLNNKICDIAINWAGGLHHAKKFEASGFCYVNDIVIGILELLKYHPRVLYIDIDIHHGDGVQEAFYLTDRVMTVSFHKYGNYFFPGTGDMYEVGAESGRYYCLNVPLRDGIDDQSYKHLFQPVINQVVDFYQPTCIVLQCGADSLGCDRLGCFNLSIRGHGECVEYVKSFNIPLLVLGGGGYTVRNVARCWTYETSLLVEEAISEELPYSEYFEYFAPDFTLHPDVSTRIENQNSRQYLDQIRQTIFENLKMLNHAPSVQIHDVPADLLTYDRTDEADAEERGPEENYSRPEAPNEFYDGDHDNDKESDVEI
T1 sequence (Q13547 whole entry, looked up): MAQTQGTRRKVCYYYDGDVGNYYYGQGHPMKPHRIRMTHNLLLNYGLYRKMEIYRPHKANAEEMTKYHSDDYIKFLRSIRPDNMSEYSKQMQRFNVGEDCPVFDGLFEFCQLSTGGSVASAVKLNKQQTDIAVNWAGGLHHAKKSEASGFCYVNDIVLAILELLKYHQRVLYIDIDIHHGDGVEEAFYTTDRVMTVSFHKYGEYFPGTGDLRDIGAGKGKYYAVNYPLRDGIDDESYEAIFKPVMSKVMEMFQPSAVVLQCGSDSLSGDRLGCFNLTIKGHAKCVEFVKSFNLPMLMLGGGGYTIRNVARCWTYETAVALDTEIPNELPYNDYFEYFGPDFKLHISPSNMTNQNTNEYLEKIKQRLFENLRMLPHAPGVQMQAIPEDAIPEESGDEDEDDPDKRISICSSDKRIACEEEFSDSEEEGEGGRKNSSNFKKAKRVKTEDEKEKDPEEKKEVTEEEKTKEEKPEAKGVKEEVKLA
T1 sequence (Q92769 whole entry, looked up): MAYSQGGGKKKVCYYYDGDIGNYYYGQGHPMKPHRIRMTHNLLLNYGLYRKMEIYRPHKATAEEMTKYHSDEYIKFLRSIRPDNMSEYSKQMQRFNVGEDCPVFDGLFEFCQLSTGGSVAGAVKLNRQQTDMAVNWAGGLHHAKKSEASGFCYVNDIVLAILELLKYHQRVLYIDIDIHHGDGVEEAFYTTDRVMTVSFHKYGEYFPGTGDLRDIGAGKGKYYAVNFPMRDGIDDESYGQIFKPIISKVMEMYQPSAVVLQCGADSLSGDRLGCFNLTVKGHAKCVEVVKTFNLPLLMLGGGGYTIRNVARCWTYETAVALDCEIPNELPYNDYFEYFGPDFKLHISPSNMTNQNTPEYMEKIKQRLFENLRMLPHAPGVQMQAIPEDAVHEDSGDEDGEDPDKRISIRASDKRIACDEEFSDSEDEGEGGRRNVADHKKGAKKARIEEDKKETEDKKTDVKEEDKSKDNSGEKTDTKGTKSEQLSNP
T1 sequence (Q9BY41 whole entry, looked up): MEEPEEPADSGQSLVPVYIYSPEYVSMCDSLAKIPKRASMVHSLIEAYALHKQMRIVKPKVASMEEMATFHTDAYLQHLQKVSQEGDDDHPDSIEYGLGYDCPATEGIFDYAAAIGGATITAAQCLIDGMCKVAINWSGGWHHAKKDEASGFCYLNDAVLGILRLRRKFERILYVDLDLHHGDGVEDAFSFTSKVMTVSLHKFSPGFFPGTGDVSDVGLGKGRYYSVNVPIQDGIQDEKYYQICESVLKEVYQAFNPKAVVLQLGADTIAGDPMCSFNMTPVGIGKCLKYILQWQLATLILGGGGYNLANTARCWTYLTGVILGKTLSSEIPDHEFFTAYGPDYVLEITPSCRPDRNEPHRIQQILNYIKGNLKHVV
Histone deacetylase 3/Nuclear receptor corepressor 2 (HDAC3/NCoR2), sequence (O15379 whole entry): as the sequence (O15379 whole entry, looked up) above
Histone deacetylase 3/Nuclear receptor corepressor 2 (HDAC3/NCoR2), sequence (Q9Y618 whole entry, further chain): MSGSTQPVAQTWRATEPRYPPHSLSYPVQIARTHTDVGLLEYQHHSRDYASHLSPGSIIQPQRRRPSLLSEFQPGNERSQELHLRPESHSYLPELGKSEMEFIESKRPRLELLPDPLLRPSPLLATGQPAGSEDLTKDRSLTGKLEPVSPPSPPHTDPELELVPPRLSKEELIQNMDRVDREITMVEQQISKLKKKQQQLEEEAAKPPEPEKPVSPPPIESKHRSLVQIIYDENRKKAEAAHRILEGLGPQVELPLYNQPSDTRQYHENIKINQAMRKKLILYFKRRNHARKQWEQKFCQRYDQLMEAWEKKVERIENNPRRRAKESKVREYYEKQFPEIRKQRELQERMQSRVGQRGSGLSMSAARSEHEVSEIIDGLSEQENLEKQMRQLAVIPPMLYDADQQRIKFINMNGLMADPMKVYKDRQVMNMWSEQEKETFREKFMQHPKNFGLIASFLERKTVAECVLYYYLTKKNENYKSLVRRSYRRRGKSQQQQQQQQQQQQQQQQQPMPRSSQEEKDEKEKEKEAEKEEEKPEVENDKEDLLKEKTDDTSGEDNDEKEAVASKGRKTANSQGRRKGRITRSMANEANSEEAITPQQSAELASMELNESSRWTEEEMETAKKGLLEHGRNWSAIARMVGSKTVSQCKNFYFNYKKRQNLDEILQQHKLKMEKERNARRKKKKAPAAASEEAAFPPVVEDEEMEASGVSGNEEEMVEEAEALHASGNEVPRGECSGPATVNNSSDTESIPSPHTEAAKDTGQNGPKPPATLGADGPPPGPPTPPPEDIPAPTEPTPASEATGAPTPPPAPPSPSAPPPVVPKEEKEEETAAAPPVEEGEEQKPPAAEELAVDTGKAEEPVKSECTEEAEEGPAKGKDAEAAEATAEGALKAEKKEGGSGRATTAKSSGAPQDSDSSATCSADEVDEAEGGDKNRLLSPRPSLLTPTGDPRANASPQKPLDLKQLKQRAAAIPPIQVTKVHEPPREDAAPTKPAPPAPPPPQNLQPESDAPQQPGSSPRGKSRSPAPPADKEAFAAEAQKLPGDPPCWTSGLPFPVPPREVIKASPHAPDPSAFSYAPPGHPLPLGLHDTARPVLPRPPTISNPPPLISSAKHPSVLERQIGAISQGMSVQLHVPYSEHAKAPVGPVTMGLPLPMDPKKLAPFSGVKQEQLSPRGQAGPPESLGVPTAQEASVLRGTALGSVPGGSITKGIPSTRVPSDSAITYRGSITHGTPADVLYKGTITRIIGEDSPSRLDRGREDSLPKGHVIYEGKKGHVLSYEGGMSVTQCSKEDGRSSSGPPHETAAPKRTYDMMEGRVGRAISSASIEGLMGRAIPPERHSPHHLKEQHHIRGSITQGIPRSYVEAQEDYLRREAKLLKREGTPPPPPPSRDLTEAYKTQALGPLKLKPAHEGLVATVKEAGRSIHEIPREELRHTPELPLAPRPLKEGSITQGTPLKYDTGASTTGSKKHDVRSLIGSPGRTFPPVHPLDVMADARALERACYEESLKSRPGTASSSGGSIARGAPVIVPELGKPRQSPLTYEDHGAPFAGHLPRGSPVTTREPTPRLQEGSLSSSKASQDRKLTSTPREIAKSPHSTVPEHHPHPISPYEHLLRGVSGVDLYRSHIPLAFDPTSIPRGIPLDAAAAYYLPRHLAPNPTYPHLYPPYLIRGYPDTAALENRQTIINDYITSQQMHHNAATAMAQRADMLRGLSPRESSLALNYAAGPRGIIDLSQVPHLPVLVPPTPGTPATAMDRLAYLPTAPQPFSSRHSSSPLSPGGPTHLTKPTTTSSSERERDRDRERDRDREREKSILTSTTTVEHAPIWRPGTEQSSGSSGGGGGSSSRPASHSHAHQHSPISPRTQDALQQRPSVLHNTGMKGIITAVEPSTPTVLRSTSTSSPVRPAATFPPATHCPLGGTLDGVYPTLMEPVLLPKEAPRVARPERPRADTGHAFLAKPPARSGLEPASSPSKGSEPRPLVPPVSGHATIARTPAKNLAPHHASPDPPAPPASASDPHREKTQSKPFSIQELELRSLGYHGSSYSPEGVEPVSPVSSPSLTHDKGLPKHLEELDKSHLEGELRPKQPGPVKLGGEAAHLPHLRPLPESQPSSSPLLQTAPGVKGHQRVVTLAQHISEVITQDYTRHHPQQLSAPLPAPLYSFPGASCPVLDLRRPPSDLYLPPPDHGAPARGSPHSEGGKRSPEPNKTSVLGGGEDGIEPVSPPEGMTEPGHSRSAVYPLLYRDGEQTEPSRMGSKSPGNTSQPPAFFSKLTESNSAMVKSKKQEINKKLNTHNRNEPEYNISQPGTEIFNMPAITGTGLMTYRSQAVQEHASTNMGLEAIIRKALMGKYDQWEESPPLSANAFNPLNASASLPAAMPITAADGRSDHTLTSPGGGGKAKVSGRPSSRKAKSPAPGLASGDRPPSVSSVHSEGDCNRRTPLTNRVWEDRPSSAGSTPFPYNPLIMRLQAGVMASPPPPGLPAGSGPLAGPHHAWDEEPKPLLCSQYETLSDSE

Row | SMILES | CI [1] | CI [2] | CI [3] | CI [4] | CI [6] | CI [7] | CI [8] | CI [9] | CI [10] | IC50 (A2780) [nM] | CI [11] | CI [12] | CI [13] | CI [14] | inhibition [15] [%] | CI [17] | CI [18] | CI [19] | CI [20] | CI [21] | other results
1 | Cc1cc(C)cc(C(=O)N(CCCCCC(=O)Nc2cc(-c3ccccc3)ccc2N)CC(=O)NCc2ccccc2)c1 | 0.09 | < 0.2 | < 0.2 | < 0.2 | < 0.2 | 0.74 | < 0.2 | < 0.2 | < 0.2 | 17100 | 0.25 | < 0.2 | 0.06 | < 0.2 | 20 | < 0.2 | 0.12 | – | – | – | inhibition [5]: inactive; Ratio IC50 [16]: 5.26
2 | CN(C)c1ccc(C(=O)N(CC(=O)NCc2ccccc2)Cc2ccc(C(=O)Nc3ccccc3N)cc2)cc1 | – | – | – | – | – | – | – | – | – | 2400 | – | – | – | – | – | – | – | 0.4 | 0.03 | 0.12 | CI [22]: 0.33; CI [23]: 0.25; CI [24]: 0.07; CI [25]: 0.32; CI [26]: 0.07; IC50 [27]: 586 nM
3 | Cc1cc(C)cc(C(=O)N(CC(=O)NCc2ccccc2)Cc2ccc(C(=O)Nc3cc(-c4ccccc4)ccc3N)cc2)c1 | 0.19 | 0.23 | 0.46 | 0.52 | 0.27 | 0.18 | 0.81 | 0.2 | < 0.2 | – | 0.14 | 0.42 | 0.08 | 0.89 | < 15 | 0.39 | 0.08 | 0.5 | < 0.2 | 0.76 | inhibition [28]: Active; CI [22]: 0.77; Activity [29]: 5.96%; CI [23]: < 0.2; CI [24]: 0.21; CI [25]: 0.7; CI [26]: 0.18; IC50 [27]: > 10000 nM; inhibition [30]: inactive
